Measured values reported in patent US9782383B2, “Prophylactic and therapeutic agent for attention-deficit/hyperactivity disorder” (FUJIMOTO CO., LTD., priority 2013, dated 2017).
Like-named read-outs stand apart in the source and are kept apart here.

Assays:
[1] = test system: human monoamine transporters (DAT, NET, SERT); conditions: highest first; Neuropsychopharmacology 27: 699-711 (2002); cited from earlier work
[2] = test system: ADHD model rats or normal rats; conditions: cited from earlier work; for locomotor activities: increasing doses
[3] = human, in vivo; cited from earlier work
[4] = human, in vivo; cited from earlier work; remark: listed apart in the source
[5] = test system: SHRSP/Ezo rats; assay: Y-maze test (inattentive behavior); type: in vivo, rat
Experimental: (§1) In all the tests described herein, the R configuration (−) substance hydrochloride salt of the compound for use in the invention (hereinafter referred to as “BPAP” in some cases) as the test material and methylphenidate hydrochloride (SIGMA Aldrich) as the comparative drug were dissolved in saline, diluted to a volume of 2 ml/kg before administration, and systemically administered into six-week-old male SHRSP/Ezo rats 30 minutes before behavior tests. Note that BPAP was subcutaneously (s.c.) administered, and methylphenidate was subcutaneously (s.c.) or intraperitoneally (i.p.) administered after the confirmation that there was no difference between the two routes, i.e., the s.c. and i.p. administration.
The short-term working memory was evaluated as a spontaneous alternation behavior using a Y-maze (45 (length)×10 (width)×35 cm (height)). The spontaneous alternation is a behavior based on the habit of a rodent preferring to investigate a new arm of the maze rather than returning to one that was previously visited in the Y-maze. In order to select three different arms continuously, it is necessary to remember the previously visited arm. To achieve this, therefore, the short-term working memory is considered indispensable. Because the processes of the short-term working memory are closely related to an appropriate amount of attention toward achievement of the task, the short-term working memory implicates aspects of attention. Thus, the Y-maze test was carried out to evaluate the inattentive behavior in SHRSP/Ezo rats.
The spontaneous alternation was measured according to the method by Sarter et al. (Psychopharmacology (Berl), 94:491-5 (1988)) using the following procedure. Under a 200-lux illuminance condition, each rat was placed in the center of the crossing point of the three arms and allowed to enter the maze arm freely for eight-minute test session, and the sequence of arm entries was recorded. The alteration behavior was defined as the consecutive entry into three arms, i.e. the combination of three different arms, with stepwise combinations in the sequence. The percentage obtained by dividing the spontaneous alternation behavior by the total number of arm entries (total arm entries) minus 2 was determined as the spontaneous alternation behavior rate (alternation rate). For example, assuming that the rat has entered the arms A, B, and C of the Y-maze in the order of ACBABACBAB, the spontaneous alternation behavior is five (ACB, CBA, BAC, ACB, and CBA), the total number of arm entries is ten, and the spontaneous alternation behavior rate is 62.5%. To consider the influence of variations in spontaneous alternation behavior rate among groups during the baseline (drug-untreated) period on the drug efficacy evaluation, the first Y-maze test was carried out three days before the drug efficacy evaluation, and grouping was performed based on the result of spontaneous alternation behavior rates in the 1st Y-maze test.
(§2) Data were represented as the means±standard errors. Student's t-test was used for the statistics analysis, and a P value below 5% was considered statistically significant.

[6] = test system: SHRSP/Ezo rats; assay: Open field test (hyperactivity, inner zone spent time); type: in vivo, rat
Experimental: as §1
The spontaneous locomotor activity in a new environment was evaluated using an open-field apparatus (90 (width)×90 (depth)×40 cm (height), 81 squares).
In this experiment, under a 200-lux illuminance condition, rats were placed in the center of the open field and allowed to move freely in the field for a 60-minute test session, and the horizontal activities (crossings: the number of squares crossed) during the exploration was analyzed by a video tracking system for behavioral experiments (LimeLight Actimetrics, USA).
as §2
Since the spent time in the inner zones (nine compartments in the center) (inner zone spent time) in the open field test is used for the evaluation of the anxiety level, the spent times per time (sec/15 min) and per behavior (sec/count) corrected with the locomotor activity (total crossings) were analyzed as the secondary evaluation in the open field test (FIG. 3). […] SHRSP/Ezo rats show an increase in spent time in the inner zone at the habituated phase during which hyperactivity was observed, indicating a reduction in anxiety level at the habituated phase. […] However, 0.3 mg/kg of BPAP had no effect on the reduction in anxiety level at habituated phase.

[7] = test system: SHRSP/Ezo rats; assay: Elevated-plus maze test (impulsivity); type: in vivo, rat
Experimental: as §1
The anxiety-related behavior was evaluated using an elevated plus maze (open arm: 50 (length)×10 cm (width), enclosed arm: 50 (length)×10 (width)×40 cm (height), height above the floor: 50 cm). The device is constituted by a wall-less open arm and a wall-surrounding enclosed arm crossing each other at right angles at a height of 50 cm above the floor. An animal staying in an open arm is exposed to anxiety in the elevated wall-less open state. […] The elevated-plus maze test reflects an equilibrium state between the approach behavior (curiosity) and the avoidance behavior driven by anxiety in an animal, and thus is generally used for the evaluation of the anxiety level of an animal.
In this experiment, under a 200-lux illuminance condition, a rat was placed in the center of the crossing point of two sets of arms and allowed to enter freely into the maze for a ten-minute test session. The total number of arm entries (total arm entries), the time spent in open arms and the rate of open arm entries were analyzed by a video tracking system for behavioral experiments (LimeLight Actimetrics).
as §2

[8] = test system: human monoamine transporters (DAT, NET, SERT); assay: Affinity for human monoamine transporters; type: binding; conditions: for order of affinities for human monoamine transporters: highest first
[9] = test system: ADHD model rats or normal rats; assay: Locomotor activity in ADHD model rats or normal rats; type: in vivo, rat; conditions: high dose
[10] = test system: rats; assay: Methamphetamine-seeking behavior in rats
[11] = test system: ADHD patients; conditions: cited from earlier work
[12] = 1 mg/kg as comparative drug (FIG. 1)
[13] = 1 mg/kg as comparative drug (FIG. 2)

Compound: CNCC[C@@H](Oc1ccccc1C)c1ccccc1 [atomoxetine]
- order of affinities for human monoamine transporters [1]: NET>SERT>DAT
- locomotor activities during an exploration period [2]: decreases
- locomotor activities [2]: does not exhibit increases
- abdominal pain [3]: 12.2%
- headache [3]: 22.3%
- dry mouth [4]: 13.8%
- headaches [4]: 10.5%

Compound: CCCNC(CCC)Cc1cc2ccccc2o1 (single isomer, unassigned; (-)) [BPAP, (−)-1-(benzofuran-2-yl)-2-propylaminopentane]
- impaired alternation behavior ([5]; s.c., 0.03 mg/kg): no improvement action was observed
- total number of arm entries compared with the first trial (Y1) ([5]; s.c., 0.03 to 0.3 mg/kg): significantly decreased
- impaired alternation behavior ([5]; s.c., 0.1 to 0.3 mg/kg): significantly improved
- locomotor activity at the exploration phase ([6]; s.c., 0.3 mg/kg): no action
- locomotor activity at the habituated phase ([6]; s.c., 0.3 mg/kg): no action
- reduction in anxiety level (inner zone spent time) at habituated phase ([6]; s.c., 0.3 mg/kg): no effect
- increase in behavior at the habituated phase ([6]; s.c., 0.01 to 0.1 mg/kg): significantly inhibited
- inner zone spent time at the habituated phase ([6]; s.c., 0.01 to 0.1 mg/kg): significantly reduced
- locomotor activity at the exploration phase ([6]; s.c., 0.01 to 0.1 mg/kg): without affecting
- rate of open arm entries ([7]; s.c., 0.1 mg/kg (P=0.08)): tendency to reduce
- spent time on the open arms per total number of arm entries ([7]; s.c., 0.1 mg/kg, secondary analysis): significantly reduced
- extension of the spent time on the open arms ([7]; s.c., 0.01 to 0.3 mg/kg): no effect
- relative affinity NET/DAT ([8]; compared with methylphenidate): substantially equal
- relative affinity for SERT (SERT/DAT) ([8]; compared with methylphenidate): higher
- order of affinities for human monoamine transporters [8]: DAT>NET>serotonin transporter (SERT)
- spontaneous locomotor activity [9]: increases
- methamphetamine-seeking behavior ([10]; due to drug-associated cues and methamphetamine-priming): inhibition action
- induction of methamphetamine-seeking behavior (dependence liability) ([10]; effective dose): did not induce

Compound: COC(=O)C(c1ccccc1)C1CCCCN1 (stereo not shown) [methylphenidate]
- reduction in spontaneous alternation behavior rate [5, 12]: recovered
- total number of arm entries [5, 12]: without increasing
- increase in the total number of arm entries ([5]; i.p., 1 mg/kg, dose validation): significant exaltation
- reduction in spontaneous alternation behavior rate ([5]; i.p., 1 mg/kg, dose validation): improved
- increase in the total number of arm entries ([5]; i.p., 0.01 and 0.1 mg/kg): no influence
- reduction in spontaneous alternation behavior rate ([5]; i.p., 0.01 to 1 mg/kg): dose-dependently improved
- reduction in anxiety level (inner zone spent time) at the habituated phase ([6]; 1 mg/kg (FIG. 3)): no effect
- spent time in the inner zone at the exploration phase ([6]; 1 mg/kg (FIG. 3)): significantly increased
- hyperactivity during the exploration phase (0 to 15 minutes) [6, 13]: worsened
- hyperactivity during the habituated phase (15 to 60 minutes) [6, 13]: worsened
- hyperactivity (horizontal ambulatory) in open field test ([6]; i.p., 1 mg/kg): did not decreased
- hyperactivity (horizontal ambulatory) in open field test ([6]; i.p., 0.01 and 0.1 mg/kg): significantly decreased
- increase in spontaneous ambulatory in open field test ([6]; i.p., 3 and 30 mg/kg): exacerbated
- extension of the spent time on the open arms ([7]; 1 mg/kg (FIG. 4)): did not improve
- increase in the rate of open arm entries ([7]; 1 mg/kg (FIG. 4)): did not improve
- increase in the total number of arm entries (hyperactivity) ([7]; 1 mg/kg (FIG. 4)): significant worsened
- extension of the open arm spent time ([7]; i.p., 0.01 to 1 mg/kg): no statistically significant change
- increase in the number of open arm entries ([7]; i.p., 0.01 to 1 mg/kg): no statistically significant change
- order of affinities for human monoamine transporters [8]: DAT>NET>serotonin transporter (SERT)
- locomotor activities [2]: dose-dependent increases
- share of ADHD patients for whom the drug is ineffective [11]: approximately three out of ten
